Experimental data from patent US20240228446A1, “PREPARATION METHOD FOR BICYCLIC COMPOUND AND APPLICATION AS ANTIFUNGAL AGENT” (priority 2021, published 2024).
≈ marks a conversion by molar mass, not a printed value.

Each molecule was assayed on Candida albicans ATCC MYA-2876 (assay: Minimal inhibitory concentration (MIC) test on fungal growth (CLSI M27, yeasts)). Settings: Candida albicans, 24 h, read-out: MIC Candida albicans ATCC MYA-2876.
Type: cell-based
Experimental: • RPMI1640 medium: Brand: Gibco, article number: 31800-014 • Sabouraud dextrose agar (SDA): Brand: Hope Bio, article number: HB0253-81 • Voriconazole: Brand: Adamas, article number: 22105A • Amphotericin B: Brand: AbCam, article number: ab141199
MIC test was conducted in accordance with the guidelines and requirements of CLSI M27 (for yeasts) and M38 (for Aspergillus).
Strain preparation: The strains were inoculated 1 day in advance by streaking on SDA plates with glycerol strains stored at −80° C. The strains were cultured at 35° C. and 40 to 60% humidity for 18 to 24 hours. Streak inoculation of Aspergillus fumigatus and Cryptococcus neoformans was required to be done 3 days and 2 days in advance, respectively.
Preparation of culture medium and compounds: The liquid culture medium RPMI was prepared with pure water, and 0.165 mol/L MOPS was added to adjust the pH to 7.0. The mixture was filtered with a 0.22 μm-membrane filter, sterilized, and stored at 4° C. (no more than 3 months). 0.85% physiological saline was sterilized at 121° C. for 30 min and then stored at room temperature (no more than 1 week). The compounds were dissolved in DMSO to 12.8 mg/mL and stored at −20° C.
For yeast, 3 to 5 colonies were selected from the SDA plate on the day of testing and fully suspended in 5 mL of sterilized 0.85% physiological saline. The turbidity of the bacterial suspension was measured with a turbidimeter, and the turbidity was adjusted to approximately 0.2. The bacterial suspension was 50-fold and 20-fold (1000-fold in total) diluted in RPMI1640 medium, respectively, to serve as the inoculum. The final inoculum concentration was 500 to 2500 CFU/mL.
The compound was diluted to the highest 800 μg/mL (or 400 μg/mL) with DMSO, and a 10-step 2-fold gradient dilution was performed, resulting in 11 concentrations. 2 μL of the gradient-diluted compound was transferred to the corresponding wells of a 96-well plate, and then 198 μL of the inoculum was transferred to the test plate. The plate was incubated at 35° C. for 24 hours (Aspergillus fumigatus and Cryptococcus neoformans were incubated for 48 and 72 hours, respectively).
After the incubation, the growth of the fungi was visually observed. The lowest concentration of the compound that inhibited the growth of yeast by 50% (inhibited Aspergillus by 100%) was defined as the minimum inhibitory concentration (MIC, μg/mL). A magnifying glass or reading at OD530 nm could be used to assist in determining the MIC. Photos were taken of the test plates for record keeping.

Structure (SMILES) | MIC
COc1ccc(C23CC(C(F)(F)C(O)(Cn4cnnn4)c4ccc(F)cc4F)(C2)C3)cn1 (stereo not drawn) [Compound 92] | 0.03 µg/mL (≈ 0.0668 µM)
OC(Cn1cnnn1)(c1ccc(F)cc1F)C(F)(F)C12CC(c3ccc(OCC(F)(F)F)cn3)(C1)C2 (stereo not drawn) [Compound 105] | 0.016 µg/mL (≈ 0.0309 µM)
CC(C)NC[C@@H](O)COc1ccc(C23CC(C(F)(F)C(O)(Cn4cnnn4)c4ccc(F)cc4F)(C2)C3)cc1 (stereo partly drawn) [Compound 54] | 0.5 µg/mL (≈ 0.91 µM)

Same assay, conditions: Candida albicans; lowest concentration inhibiting growth of yeast by 50%; 35° C., 24 hours; RPMI1640; read-out: MIC Candida albicans ATCC MYA-2876

MIC | Structure (SMILES)
0.016 µg/mL (≈ 0.0301 µM) | OC(Cn1cnnn1)(c1ccc(F)cc1F)C(F)(F)C12CC(c3ccc(OCc4nccs4)cc3)(C1)C2 (stereo not drawn) [Compound 73]
0.06 µg/mL (≈ 0.112 µM) | O=C1NC[C@@H](COc2ccc(C34CC(C(F)(F)C(O)(Cn5cnnn5)c5ccc(F)cc5F)(C3)C4)cc2)O1 (stereo partly drawn) [Compound 60]
0.13 µg/mL (≈ 0.253 µM) | NS(=O)(=O)Oc1ccc(C23CC(C(F)(F)C(O)(Cn4cnnn4)c4ccc(F)cc4F)(C2)C3)cc1 (stereo not drawn) [Compound 68]
0.0078 µg/mL (≈ 0.0151 µM) | OC(Cn1cncn1)(c1ccc(F)cc1F)C(F)(F)C12CC(c3ccc(OCC(F)(F)F)nc3)(C1)C2 (stereo not drawn) [Compound 47]
2 µg/mL (≈ 3.83 µM) | N#Cc1ccc(C23CC(C(F)(F)[C@@](Cn4cncn4)(OP(=O)(O)O)c4ccc(F)cc4F)(C2)C3)cc1 [Compound 27A-P1]
0.06 µg/mL (≈ 0.135 µM) | N#Cc1ccc(C23CC(C(F)(F)C(F)(Cn4cncn4)c4ccc(F)cc4F)(C2)C3)cc1 (stereo not drawn) [Compound 83]
0.06 µg/mL (≈ 0.104 µM) | O[C@H](COc1ccc(C23CC(C(F)(F)C(O)(Cn4cnnn4)c4ccc(F)cc4F)(C2)C3)cc1)CN1CCOCC1 (stereo partly drawn) [Compound 58]
0.016 µg/mL (≈ 0.0317 µM) | OC1(COc2ccc(C34CC(C(F)(F)C(O)(Cn5cnnn5)c5ccc(F)cc5F)(C3)C4)cc2)CC1 (stereo not drawn) [Compound 147]
0.125 µg/mL (≈ 0.248 µM) | CNC(=O)COc1ccc(C23CC(C(F)(F)[C@@](O)(Cn4cncn4)c4ccc(F)cc4F)(C2)C3)cc1 (single isomer, unassigned) [Compound 35B]
0.016 µg/mL (≈ 0.0309 µM) | O[C@@](Cn1cnnn1)(c1ccc(F)cc1F)C(F)(F)C12CC(c3cnc(OCC(F)(F)F)cn3)(C1)C2 (stereo in doubt) [Compound 107A]
0.13 µg/mL (≈ 0.38 µM) | OC(Cn1cnnn1)(c1ccc(F)cc1F)C(F)(F)C12CC(C1)C2 (stereo not drawn) [Compound 6]
0.06 µg/mL (≈ 0.105 µM) | CS(=O)(=O)CC(O)COc1ccc(C23CC(C(F)(F)C(O)(Cn4cnnn4)c4ccc(F)cc4F)(C2)C3)cc1 (stereo not drawn) [Compound 141]
0.0078 µg/mL (≈ 0.0152 µM) | OC(Cn1ccnc1)(c1ccc(F)cc1F)C(F)(F)C12CC(c3ccc(OCC(F)(F)F)cc3)(C1)C2 (stereo not drawn) [Compound 124]
0.016 µg/mL (≈ 0.0312 µM) | N#CC1(COc2ccc(C34CC(C(F)(F)C(O)(Cn5cnnn5)c5ccc(F)cc5F)(C3)C4)cc2)CC1 (stereo not drawn) [Compound 148]
0.016 µg/mL (≈ 0.0313 µM) | O[C@H](COc1ccc(C23CC(CC(O)(Cn4cnnn4)c4ccc(F)cc4F)(C2)C3)cc1)C(F)(F)F (stereo partly drawn) [Compound 89]
0.03 µg/mL (≈ 0.0581 µM) | OC(Cn1cnnn1)(c1cc(F)ccc1F)C(F)(F)C12CC(c3ccc(OCC(F)(F)F)cc3)(C1)C2 (stereo not drawn) [Compound 9]
0.06 µg/mL (≈ 0.109 µM) | OC(COc1ccc(C23CC(C(F)(F)C(O)(Cn4cnnn4)c4ccc(F)cc4F)(C2)C3)cc1)C1(O)COC1 (stereo not drawn) [Compound 146]
0.06 µg/mL (≈ 0.116 µM) | N[C@@](Cn1cnnn1)(c1ccc(F)cc1F)C(F)(F)C12CC(c3ccc(OCC(F)(F)F)cc3)(C1)C2 (stereo in doubt) [Compound 4A]
0.06 µg/mL (≈ 0.132 µM) | O[C@](Cn1cnnn1)(c1ccc(F)cc1F)C(F)(F)C12CC(c3ccc(Cl)cc3)(C1)C2 [Compound 32B]
0.0078 µg/mL (≈ 0.0156 µM) | OC(Cn1cnnn1)(c1ccc(F)cc1F)C(F)(F)C12CC(c3ccc(COC(F)F)cc3)(C1)C2 (stereo not drawn) [Compound 159]
0.125 µg/mL (≈ 0.281 µM) | COc1ccc(C23CC(C(C)(F)C(O)(Cn4cnnn4)c4ccc(F)cc4F)(C2)C3)cc1 (stereo not drawn) [Compound 17]
0.016 µg/mL (≈ 0.0346 µM) | CCOc1ccc(C23CC(C(F)(F)C(O)(Cn4cnnn4)c4ccc(F)cc4F)(C2)C3)cc1 (stereo not drawn) [Compound 87]
0.016 µg/mL (≈ 0.0293 µM) | O[C@H](CNc1ccc(C23CC(C(F)(F)[C@](O)(Cn4cnnn4)c4ccc(F)cc4F)(C2)C3)cn1)C(F)(F)F (relative stereo) [Compound 99A]

MIC | Structure (SMILES)
0.03 µg/mL (≈ 0.058 µM) | CN1CC[C@H](Oc2ccc(C34CC(C(F)(F)C(O)(Cn5cnnn5)c5ccc(F)cc5F)(C3)C4)cc2)C1 (stereo partly drawn) [Compound 43]
0.016 µg/mL (≈ 0.0361 µM) | N#Cc1ccc(C23CC(C(F)(F)C(O)(Cn4cnnn4)c4cc(F)ccc4F)(C2)C3)cc1 (stereo not drawn) [Compound 28]
0.016 µg/mL (≈ 0.033 µM) | OC(Cn1cnnn1)(c1ccc(F)cc1F)C(F)(F)C12CC(c3ccc(OC(F)F)cc3)(C1)C2 (stereo not drawn) [Compound 26]
0.06 µg/mL (≈ 0.123 µM) | OC(Cn1cnnn1)(c1ccc(F)cc1F)C(F)(F)C12CC(c3ccc(OC4CNC4)cc3)(C1)C2 (stereo not drawn) [Compound 44]
0.25 µg/mL (≈ 0.485 µM) | O[C@](Cn1cncn1)(c1ccc(F)cc1F)C(F)(F)C12CC(c3ccc(OCC(F)(F)F)cc3)(C1)C2 (stereo in doubt) [Compound 2B]
0.0078 µg/mL (≈ 0.0152 µM) | C[C@@](F)(C12CC(c3ccc(OCC(F)(F)F)cc3)(C1)C2)[C@](O)(Cn1cnnn1)c1ccc(F)cc1F (single isomer, unassigned) [Compound 18A]
0.06 µg/mL (≈ 0.11 µM) | O[C@@H](COc1ccc(C23CC(C(F)(F)[C@](O)(Cn4cnnn4)c4cc(F)ccc4F)(C2)C3)cc1)C(F)(F)F [Compound 166A]
0.016 µg/mL (≈ 0.0325 µM) | COCCOc1ccc(C23CC(C(F)(F)C(O)(Cn4cnnn4)c4ccc(F)cc4F)(C2)C3)cc1 (stereo not drawn) [Compound 62]
0.13 µg/mL (≈ 0.232 µM) | O=C(COc1ccc(C23CC(C(F)(F)C(O)(Cn4cnnn4)c4ccc(F)cc4F)(C2)C3)cc1)N1CCOCC1 (stereo not drawn) [Compound 70]
0.0078 µg/mL (≈ 0.0143 µM) | OC(CNc1ccc(C23CC(C(F)(F)C(O)(Cn4cncn4)c4ccc(F)cc4F)(C2)C3)cn1)C(F)(F)F (stereo not drawn) [Compound 100]
0.03 µg/mL (≈ 0.0576 µM) | OC1(COc2ccc(C34CC(C(F)(F)C(O)(Cn5cnnn5)c5ccc(F)cc5F)(C3)C4)cc2)COC1 (stereo not drawn) [Compound 150]
0.016 µg/mL (≈ 0.0293 µM) | O[C@H](COc1ccc(C23CC(C(F)(F)[C@](O)(Cn4cnnn4)c4cc(F)ccc4F)(C2)C3)cc1)C(F)(F)F (relative stereo) [Compound 165A]
0.5 µg/mL (≈ 1.12 µM) | COc1ccc(C23CC(C(F)(F)[C@@](O)(Cn4cnnn4)c4ccc(F)cc4F)(C2)C3)cc1 (stereo in doubt) [Compound 1B]
0.03 µg/mL (≈ 0.0597 µM) | OC(Cn1cnnn1)(c1ccc(F)cc1F)C(F)(F)C12CC(c3ccc(OC(F)(F)F)cc3)(C1)C2 (stereo not drawn) [Compound 24]
0.0078 µg/mL (≈ 0.0146 µM) | OC(COc1ccc(C23CC(C(F)(F)C(O)(Cn4cnnn4)c4ccc(F)cc4F)(C2)C3)cc1)C1COC1 (stereo not drawn) [Compound 152]
0.25 µg/mL (≈ 0.526 µM) | CNC(=O)c1ccc(C23CC(C(F)(F)C(O)(Cn4cnnn4)c4ccc(F)cc4F)(C2)C3)cc1 (stereo not drawn) [Compound 79]
0.03 µg/mL (≈ 0.058 µM) | OC(Cn1cnnn1)(c1ccc(F)cc1F)C(F)(F)C12CC(c3ccc(OCC(F)(F)F)nc3)(C1)C2 (stereo not drawn) [Compound 46]
0.25 µg/mL (≈ 0.467 µM) | CN(C)C[C@@H](O)COc1ccc(C23CC(C(F)(F)C(O)(Cn4cnnn4)c4ccc(F)cc4F)(C2)C3)cc1 (stereo partly drawn) [Compound 55]
≤ 0.0039 µg/mL | N#Cc1ccc(C23CC(C[C@](O)(Cn4cncn4)c4ccc(F)cc4F)(C2)C3)cc1 (stereo in doubt) [Compound 91A]
0.06 µg/mL (≈ 0.103 µM) | CCS(=O)(=O)C[C@@H](O)COc1ccc(C23CC(C(F)(F)C(O)(Cn4cnnn4)c4ccc(F)cc4F)(C2)C3)cc1 (stereo partly drawn) [Compound 139]
1 µg/mL (≈ 1.94 µM) | O[C@](Cn1cnnn1)(c1ccc(F)cc1F)C(F)(F)C12CC(c3ccc(OCC(F)(F)F)cc3)(C1)C2 [Compound 3B]
0.06 µg/mL (≈ 0.113 µM) | OC(Cn1cnnn1)(c1ccc(F)cc1F)C(F)(F)C12CC(CN3CCC(Oc4ccccc4)CC3)(C1)C2 (stereo not drawn) [Compound 80]
0.25 µg/mL (≈ 0.504 µM) | CS(=O)(=O)c1ccc(C23CC(C(F)(F)C(O)(Cn4cnnn4)c4ccc(F)cc4F)(C2)C3)cc1 (stereo not drawn) [Compound 88]

Same assay, conditions: lowest concentration inhibiting growth of yeast by 50%; 35° C., 24 hours; RPMI1640

MIC Candida albicans ATCC MYA-2876 | Structure (SMILES)
0.016 µg/mL (≈ 0.0449 µM) | CC12CC(C(F)(F)[C@](O)(Cn3cnnn3)c3ccc(F)cc3F)(C1)C2 [Compound 14A]
0.0078 µg/mL (≈ 0.0154 µM) | OC(Cn1cnnn1)(c1ccc(F)cc1F)C(F)(F)C12CC(C3=CCN(CC(F)(F)F)CC3)(C1)C2 (stereo not drawn) [Compound 118]
0.016 µg/mL (≈ 0.0333 µM) | O[C@](Cn1cnnn1)(CC12CC(c3ccc(OCC(F)(F)F)cc3)(C1)C2)c1ccc(F)cc1F [Compound 48A]
0.0078 µg/mL (≈ 0.0154 µM) | CNC(=O)COc1ccc(C23CC(C(F)(F)[C@](O)(Cn4cnnn4)c4ccc(F)cc4F)(C2)C3)cc1 [Compound 34A]

Structure (SMILES) | MIC Candida albicans ATCC MYA-2876
Oc1ccc(C23CC(C(F)(F)[C@](O)(Cn4cnnn4)c4ccc(F)cc4F)(C2)C3)cc1 (single isomer, unassigned) [Compound 20A] | 0.06 µg/mL (≈ 0.138 µM)
